The values that follow are results of earlier work, collected in patent US20250241850A1, “BIOADHESIVE NASAL SPRAY COMPOSITION, PREPARATION METHOD AND USE” (Eurofarma Laboratórios S.A., priority 2022, published 2025).

Molecules are shown by their SMILES. Counter-ions that a name gives are not always drawn.

For this series the following is noted: in vivo.

`CN1C2CCCC1CC(NC(=O)c1nn(C)c3ccccc13)C2` (stereo not shown) [Granisetron hydrochloride]: the half-life was 3 to 4 h.
